Paper PMC9120017, “Inhibition mechanism of the chloride channel TMEM16A by the pore blocker 1PBC” (Nature Communications, 2022)
Where two headings read alike, the source gives them in different places.

Target: T1, mouse TMEM16A mutant P595A (Mus musculus, UniProt Q8BHY3, P595A)
T1 construct: expressed in transfected cells; host or cells: HEK293T
T1 sequence (Q8BHY3 1-960 P595A): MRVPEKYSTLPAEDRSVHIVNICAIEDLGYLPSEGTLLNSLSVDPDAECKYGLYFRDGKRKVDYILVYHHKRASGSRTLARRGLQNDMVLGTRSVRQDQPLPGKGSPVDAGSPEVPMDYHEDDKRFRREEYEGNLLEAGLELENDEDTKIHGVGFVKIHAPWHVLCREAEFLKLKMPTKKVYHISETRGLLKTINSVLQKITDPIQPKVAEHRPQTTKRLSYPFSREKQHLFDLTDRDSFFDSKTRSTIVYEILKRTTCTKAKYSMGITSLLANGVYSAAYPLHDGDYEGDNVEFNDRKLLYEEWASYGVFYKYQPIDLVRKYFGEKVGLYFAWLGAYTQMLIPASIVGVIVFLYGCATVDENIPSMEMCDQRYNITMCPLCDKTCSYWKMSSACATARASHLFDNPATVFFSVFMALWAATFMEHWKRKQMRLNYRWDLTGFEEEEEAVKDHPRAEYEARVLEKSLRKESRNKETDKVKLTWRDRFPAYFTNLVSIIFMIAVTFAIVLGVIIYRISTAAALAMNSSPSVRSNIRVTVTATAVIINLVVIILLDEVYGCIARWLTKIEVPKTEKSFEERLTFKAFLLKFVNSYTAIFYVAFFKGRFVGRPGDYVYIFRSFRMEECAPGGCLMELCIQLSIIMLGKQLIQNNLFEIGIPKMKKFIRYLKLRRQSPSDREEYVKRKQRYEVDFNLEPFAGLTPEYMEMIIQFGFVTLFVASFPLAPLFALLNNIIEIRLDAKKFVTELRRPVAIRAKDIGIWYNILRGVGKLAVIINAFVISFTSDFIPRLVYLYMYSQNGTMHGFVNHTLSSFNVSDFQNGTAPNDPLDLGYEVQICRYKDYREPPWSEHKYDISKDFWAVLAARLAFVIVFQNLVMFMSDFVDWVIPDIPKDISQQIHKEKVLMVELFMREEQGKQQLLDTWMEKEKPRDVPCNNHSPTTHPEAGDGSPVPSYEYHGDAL
Assay: Inside-out patch recording of 1PBC block, mutant P595A
Format: cell-based
Conditions: for remaining activity at 1 µM: 1PBC conc 1; for remaining activity at 1 µM / remaining activity at 3 µM / remaining activity at 10 µM / remaining activity at 30 µM: read-out: relative current in 1PBC (avr); for remaining activity at 3 µM: 1PBC conc 3; for remaining activity at 10 µM: 1PBC conc 10; for remaining activity at 30 µM: 1PBC conc 30
Description: HEK293T cells (ATCC CRL-1573) were maintained in Dulbecco’s modified Eagle’s medium (DMEM; Sigma-Aldrich) supplemented with 10 U ml^−1 penicillin, 0.1 mg ml^−1 streptomycin (Sigma-Aldrich), 2 mM L-glutamine (Sigma-Aldrich), and 10% FBS (Sigma-Aldrich) in a humidified atmosphere containing 5% CO2 at 37 °C. HEK293S GnTI^− cells (ATCC CRL-3022) were maintained in HyClone HyCell TransFx-H medium (GE Healthcare) supplemented with 10 U ml^−1 penicillin, 0.1 mg ml^−1 streptomycin, 4 mM L-glutamine, 0.15% poloxamer 188 (Sigma-Aldrich), and 1% FBS in an atmosphere containing 5% CO2 at 185 rpm at 37 °C. The ac splice variant of mouse TMEM16A (UniProt ID: Q8BHY3), mouse TMEM16B (UniProt ID: Q8CFW1), or mouse TMEM16F (UniProt ID: Q6P9J9) bearing a 3C cleavage site, a Venus YFP, a Myc tag, and a Streptavidin-binding peptide (SBP) downstream of the open reading frame in a modified pcDNA3.1 vector (Invitrogen) were used as described previously[21],[31]. Mutations were introduced using a modified QuikChange method[58] and were verified by sequencing.
HEK293T cells were transfected with 3–4 μg DNA per 6 cm Petri dish using the calcium phosphate co-precipitation method and were used within 24–96 h after transfection. Recordings were performed on inside-out patches excised from HEK293T cells expressing the construct of interest. Patch pipettes were pulled from borosilicate glass capillaries (O.D. 1.5 mm, I.D. 0.86 mm, Sutter Instrument) and were fire-polished with a microforge (Narishige) before use. Pipette resistance was typically 3–8 MΩ when filled with the recording solutions detailed below. Seal resistance was typically 4 GΩ or higher. Voltage-clamp recordings were made using Axopatch 200B, Digidata 1550, and Clampex 10.7 (Molecular Devices). Analog signals were filtered with the in-built 4-pole Bessel filter at 10 kHz and were digitized at 20 kHz. Solution exchange was achieved using a gravity-fed system through a theta glass pipette mounted on an ultra-fast piezo-driven stepper (Siskiyou). […] All recordings were performed at 20 °C.
A symmetrical ionic condition was used throughout. Stock solution with Ca^2+-EGTA contained 150 mM NaCl, 5.99 mM Ca(OH)2, 5 mM EGTA, and 10 mM HEPES at pH 7.40. Stock solution with EGTA contained 150 mM NaCl, 5 mM EGTA, and 10 mM HEPES at pH 7.40. Free Ca^2+ concentrations were adjusted by mixing the stock solutions at the required ratios calculated using the WEBMAXC program (http://web.stanford.edu/~cpatton/webmaxcS.htm). Patch pipettes were filled with the stock solution with Ca^2+-EGTA, which has a free Ca^2+ concentration of 1 mM. 1PBC (ChemBridge) stock was reconstituted in anhydrous DMSO (Sigma-Aldrich) at 100 mM and stored at −20 °C. Working solutions with 1PBC were prepared by serial dilution. Unless otherwise stated, experiments were performed at a saturating Ca^2+ concentration as shown in Supplementary Table 1 and the primary data were corrected for current rundown as described previously[21],[25].
Concentration-response relations, obtained from the ratio of the I-V plots before and after the application of the blocker, were fitted to the Hill equation,1 I/Imax=1/1+IC50/[blocker]^h where I/Imax is the normalized current responses, IC50 defines the concentration at which inhibition is at its half-maximum, and h is the Hill coefficient.

SMILES: N#Cc1c(C(F)(F)F)cc(O)n2c1nc1ccccc12 [1PBC]
- IC50 (0 mV, 2 µM Ca2+): 3.1 µM
- remaining activity at 1 µM (0 mV): 75.3%
- remaining activity at 3 µM (0 mV): 48.8%
- remaining activity at 10 µM (0 mV): 25.9%
- remaining activity at 30 µM (0 mV): 11.1%
- IC50 (20 mV, 2 µM Ca2+): 2.46 µM
- remaining activity at 1 µM (20 mV): 70.9%
- remaining activity at 3 µM (20 mV): 43%
- remaining activity at 10 µM (20 mV): 22.6%
- remaining activity at 30 µM (20 mV): 8.98%
- IC50 (40 mV, 2 µM Ca2+): 2 µM
- remaining activity at 1 µM (40 mV): 66.5%
- remaining activity at 3 µM (40 mV): 38.4%
- remaining activity at 10 µM (40 mV): 19%
- remaining activity at 30 µM (40 mV): 7.73%
- IC50 (60 mV, 2 µM Ca2+): 1.75 µM
- remaining activity at 1 µM (60 mV): 64.4%
- remaining activity at 3 µM (60 mV): 34.6%
- remaining activity at 10 µM (60 mV): 16.9%
- remaining activity at 30 µM (60 mV): 7.56%
- IC50 (80 mV, 2 µM Ca2+): 1.57 µM
- remaining activity at 1 µM (80 mV): 61.3%
- remaining activity at 3 µM (80 mV): 32.5%
- remaining activity at 10 µM (80 mV): 15.9%
- remaining activity at 30 µM (80 mV): 7.06%
- IC50 (100 mV, 2 µM Ca2+): 1.48 µM
- remaining activity at 1 µM (100 mV): 60.2%
- remaining activity at 3 µM (100 mV): 31%
- remaining activity at 10 µM (100 mV): 15.3%
- remaining activity at 30 µM (100 mV): 6.31%
- IC50 (120 mV, 2 µM Ca2+): 1.63 µM
- remaining activity at 1 µM (120 mV): 64.3%
- remaining activity at 3 µM (120 mV): 31.5%
- remaining activity at 10 µM (120 mV): 15.7%
- remaining activity at 30 µM (120 mV): 6.66%
- IC50 (140 mV, 2 µM Ca2+): 1.91 µM
- remaining activity at 1 µM (140 mV): 70.3%
- remaining activity at 3 µM (140 mV): 33.2%
- remaining activity at 10 µM (140 mV): 17.5%
- remaining activity at 30 µM (140 mV): 7.54%
- IC50 (-20 mV, 2 µM Ca2+): 3.88 µM
- remaining activity at 1 µM (-20 mV): 79.6%
- remaining activity at 3 µM (-20 mV): 54.6%
- remaining activity at 10 µM (-20 mV): 29.2%
- remaining activity at 30 µM (-20 mV): 13.3%
- IC50 (-40 mV, 2 µM Ca2+): 4.91 µM
- remaining activity at 1 µM (-40 mV): 84%
- remaining activity at 3 µM (-40 mV): 59.7%
- remaining activity at 10 µM (-40 mV): 33.9%
- remaining activity at 30 µM (-40 mV): 15.9%
- IC50 (-60 mV, 2 µM Ca2+): 5.83 µM
- remaining activity at 1 µM (-60 mV): 87.1%
- remaining activity at 3 µM (-60 mV): 62.7%
- remaining activity at 10 µM (-60 mV): 37.7%
- remaining activity at 30 µM (-60 mV): 18.7%
- IC50 (-80 mV, 2 µM Ca2+): 7 µM
- remaining activity at 1 µM (-80 mV): 88.8%
- remaining activity at 3 µM (-80 mV): 67.8%
- remaining activity at 10 µM (-80 mV): 41.3%
- remaining activity at 30 µM (-80 mV): 21%
- IC50 (-100 mV, 2 µM Ca2+): 8.19 µM
- remaining activity at 1 µM (-100 mV): 90.4%
- remaining activity at 3 µM (-100 mV): 70.3%
- remaining activity at 10 µM (-100 mV): 45%
- remaining activity at 30 µM (-100 mV): 24%
- IC50 (-120 mV, 2 µM Ca2+): 9.33 µM
- remaining activity at 1 µM (-120 mV): 92.2%
- remaining activity at 3 µM (-120 mV): 72.9%
- remaining activity at 10 µM (-120 mV): 47.9%
- remaining activity at 30 µM (-120 mV): 26.1%
- IC50 (-140 mV, 2 µM Ca2+): 10.5 µM
- remaining activity at 1 µM (-140 mV): 93.8%
- remaining activity at 3 µM (-140 mV): 75.4%
- remaining activity at 10 µM (-140 mV): 50.3%
- remaining activity at 30 µM (-140 mV): 28.4%
- IC50 (P595A, V 0 mV): 3.1 µM
- IC50 (P595A, V 20 mV): 2.46 µM
- IC50 (P595A, V 40 mV): 2 µM
- IC50 (P595A, V 60 mV): 1.75 µM
- IC50 (P595A, V 80 mV): 1.57 µM
- IC50 (P595A, V 100 mV): 1.48 µM
- IC50 (P595A, V 120 mV): 1.63 µM
- IC50 (P595A, V 140 mV): 1.91 µM
- IC50 (P595A, V -20 mV): 3.88 µM
- IC50 (P595A, V -40 mV): 4.91 µM
- IC50 (P595A, V -60 mV): 5.83 µM
- IC50 (P595A, V -80 mV): 7 µM
- IC50 (P595A, V -100 mV): 8.19 µM
- IC50 (P595A, V -120 mV): 9.33 µM
- IC50 (P595A, V -140 mV): 10.5 µM
